Here are results for 28 compounds from ChEMBL document CHEMBL1144577, “1,5-Biaryl pyrrole derivatives as EP1 receptor antagonists. Structure-activity relationships of 6-substituted and 5,6-disubstituted benzoic acid derivatives” (Bioorg Med Chem Lett, 2007).

Data set [1] in a line: Blood clearance in rat. It counts as ADME, organism-based.
Data set [2] in a line: Volume of distribution at steady state in rat. Type of data set: ADME, organism-based. Conditions: in vivo, read-out: Vss.
Data set [3] deals with Rattus norvegicus. The experiment in a line: Reversal of hypersensitivity in po dosed FCA rat model of inflammatory pain. It counts as functional.
Data set [4] concerns the target T1, Prostaglandin E2 receptor EP1 subtype (Homo sapiens, UniProt P34995).
T1 sequence (P34995 whole entry): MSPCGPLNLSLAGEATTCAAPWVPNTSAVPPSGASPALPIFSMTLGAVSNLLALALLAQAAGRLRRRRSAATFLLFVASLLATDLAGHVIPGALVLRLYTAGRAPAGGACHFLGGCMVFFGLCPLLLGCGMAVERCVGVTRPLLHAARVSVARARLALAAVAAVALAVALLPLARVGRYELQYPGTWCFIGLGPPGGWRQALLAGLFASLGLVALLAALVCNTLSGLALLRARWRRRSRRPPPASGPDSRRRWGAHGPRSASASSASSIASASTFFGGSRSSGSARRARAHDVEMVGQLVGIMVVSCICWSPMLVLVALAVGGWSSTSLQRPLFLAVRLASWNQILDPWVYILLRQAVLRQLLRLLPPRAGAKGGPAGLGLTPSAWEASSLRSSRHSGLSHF
The data set can be described thus: Displacement of [3H]PGE2 from human recombinant EP1 receptor expressed in CHOK1 cell membrane. Type of data set: cell membranes, CHO-K1. On the technique in general: Loss of bound radioactivity is the signal in a displacement assay; it reports binding, not function.

Data set [5] can be described thus: Cmax in rat at 3 mg/kg, po. It counts as ADME, organism-based. More on the design: dose 3 mg/kg, route oral. Conditions: in vivo.
Data set [6] is described as follows: Tmax in rat at 3 mg/kg, po. It counts as ADME, organism-based. More on the design: dose 3 mg/kg, route oral. The following applies: in vivo.
For data set [7], the system named is Rattus norvegicus. The experiment in a line: Normalized AUC (0 to t) in rat at 3 mg/kg, po. More on the design: dose 3 mg/kg, route oral. The following applies: in vivo. It counts as ADME, organism-based.
The test system of data set [8] is Rattus norvegicus. The experiment in a line: Reversal of hypersensitivity in FCA rat model of inflammatory pain at 5 mg/kg, po. Type of data set: functional.

The clearance is the rate of elimination divided by the concentration. Read a high clearance as efficient removal. In general, ED50 refers to the midpoint of the dose-response relation. Consider `Cc1ccc(-c2cc(Br)ccc2OCc2ccc(F)cc2)n1-c1cccc(C(=O)O)c1`, for which the clearance in data set [1] came to 42 mL/min/kg. In data set [2], the Vd was 0.7 L/kg. Besides, the median effective dose (ED50) in data set [3] stood at 9.2 mg/kg.

Usually IC50 stands for the concentration that inhibits the measured activity by half. Broadly, the Cmax is the highest concentration seen after dosing. As a reminder, the Tmax is the time at which the peak concentration occurs. Regarding `COc1ccc(-n2c(C)ccc2-c2cc(Br)ccc2OCc2ccc(F)cc2F)cc1C(=O)O`, the IC50 in data set [4] is 0.398 nM. The compound further gave a peak concentration (Cmax) in data set [5] of 340 nM. Moreover, the Tmax in data set [6] is 30 min. In data set [7], this compound had an AUC/dose of 4 kg·min/L. For the compound `Cc1c(N)cc(-n2c(C)ccc2-c2cc(C(F)(F)F)ccc2OCc2ccccc2)cc1C(=O)O`, the Activity in data set [8] is listed as 40%. Besides, the IC50 in data set [4] was 3.98 nM. In data set [5], this compound yielded a Cmax of 910 nM. Besides, in data set [6], the time to peak (Tmax) was 30 min. In data set [7], this compound returned an AUC/dose of 31 kg·min/L. With `Cc1c(N)cc(-n2c(C)ccc2-c2cc(Br)ccc2OCc2ccc(F)cc2)cc1C(=O)O`, the Activity in data set [8] was 50%. Further, the IC50 in data set [4] is 0.794 nM. For the same compound, the Cmax in data set [5] came to 1350 nM. Moreover, in data set [6], the Tmax stood at 66 min. Besides, in data set [7], the AUC/dose worked out at 52 kg·min/L.

Consider `Cc1ccc(-c2cc(Br)ccc2OCc2ccc(F)cc2)n1-c1ccc(OC(F)F)c(C(=O)O)c1`, for which the IC50 in data set [4] is 2 nM.

In the case of `Cc1c(N)cc(-n2c(C)ccc2-c2cc(C(F)(F)F)ccc2OCc2ccc(F)cc2)cc1C(=O)O`, in data set [4], the IC50 was 3.98 nM. As to `Cc1ccc(-c2cc(Cl)ccc2OCc2ccccc2)n1-c1cc(C(=O)O)c2ccccc2c1`, the IC50 in data set [4] was 6.31 nM. This compound registered a Cmax in data set [5] of 220 nM. The time to peak (Tmax) in data set [6] was 240 min. The same compound displayed an AUC/dose in data set [7] of 9 kg·min/L. As for `Cc1ccc(-c2cc(Br)ccc2OCc2ccc(F)cc2)n1-c1cc(C(=O)O)c2ccccc2c1`, in data set [4], the IC50 is 5.01 nM. In data set [5], this compound had a peak concentration (Cmax) of 520 nM. For the same compound, the Tmax in data set [6] was found to be 30 min. In addition, in data set [7], the AUC/dose stood at 9 kg·min/L.

`Cc1ccc(-c2cc(Cl)ccc2OCc2ccccc2)n1-c1cc(C(=O)O)c2cc[nH]c2c1`: the half-inhibitory concentration (IC50) in data set [4] is 1.26 nM. Still for that read-out and setting: then `Cc1ccc(-c2cc(Br)ccc2OCc2ccc(F)cc2)n1-c1ccc(F)c(C(=O)O)c1`, with 1.26 nM. Consider `Cc1ccc(-c2cc(C(F)(F)F)ccc2OCc2ccccc2)n1-c1ccc(F)c(C(=O)O)c1`, for which the Activity in data set [8] worked out at 56%. Moreover, the IC50 in data set [4] is 2 nM. In data set [5], this compound displayed a Cmax of 870 nM. Further, in data set [6], the Tmax is 36 min. In data set [7], this compound yielded an AUC/dose of 27 kg·min/L.

For the compound `Cc1ccc(OCc2ccc(F)cc2)c(-c2ccc(C)n2-c2ccc(F)c(C(=O)O)c2)c1`, in data set [4], the IC50 was 15.8 nM. Same read-out and setting: then `Cc1ccc(-c2cc(F)ccc2OCc2ccc(F)cc2)n1-c1ccc(F)c(C(=O)O)c1`, with 12.6 nM; and `Cc1ccc(-c2cc(Br)ccc2OCc2ccc(F)cc2)n1-c1ccc(Cl)c(C(=O)O)c1`, with 2.51 nM; and `Cc1ccc(OCc2ccc(F)cc2)c(-c2ccc(C)n2-c2cc(C(=O)O)c3ccccc3c2)c1`, with 79.4 nM. For `Cc1ccc(-c2cc(Br)ccc2OCc2ccccc2)n1-c1ccc(OC(F)F)c(C(=O)O)c1`, the IC50 in data set [4] was 5.01 nM.

Turning to `Cc1ccc(-c2cc(Br)ccc2OCc2ccc(F)cc2F)n1-c1ccc(OC(F)F)c(C(=O)O)c1`, the IC50 in data set [4] is 0.631 nM. Still for that read-out and setting: then `CC(=O)Nc1ccc(-n2c(C)ccc2-c2cc(Br)ccc2OCc2ccc(F)cc2F)cc1C(=O)O`, with 0.398 nM; and `Cc1c(N)cc(-n2c(C)ccc2-c2cc(Br)ccc2OCc2ccccc2)cc1C(=O)O`, with 3.16 nM; and `Cc1ccc(-c2cc(C(F)(F)F)ccc2OCc2ccc(F)cc2)n1-c1ccc(F)c(C(=O)O)c1`, with 7.94 nM. Still for that read-out and setting: then `Cc1ccc(OCc2ccc(F)cc2)c(-c2ccc(C)n2-c2cc(N)c(C)c(C(=O)O)c2)c1`, with 15.8 nM; and `Cc1ccc(-c2cc(Br)ccc2OCc2ccccc2)n1-c1cc(C(=O)O)c2ccccc2c1`, with 12.6 nM; and `Cc1ccc(-n2c(C)ccc2-c2cc(Br)ccc2OCc2ccc(F)cc2F)cc1C(=O)O`, with 1.26 nM. On the same count and under the same terms, under `Cc1ccc(-c2cc(Br)ccc2OCc2ccc(F)cc2F)n1-c1ccc(O)c(C(=O)O)c1` stands 2 nM. With `Cc1ccc(-c2cc(F)ccc2OCc2ccc(F)cc2)n1-c1cc(C(=O)O)c2ccccc2c1`, in data set [4], the concentration for half-maximal inhibition (IC50) is 25.1 nM.

As for `Cc1ccc(-n2c(C)ccc2-c2cc(Cl)ccc2OCc2ccc(F)cc2F)cc1C(=O)O`, the IC50 in data set [4] is 2.51 nM. Still for that read-out and setting: then `Cc1ccc(-c2cc(Br)ccc2OCc2ccc(F)cc2F)n1-c1cc(C(=O)O)c2ccccc2c1`, with 2.51 nM. On to `Cc1c(N)cc(-n2c(C)ccc2-c2cc(Cl)ccc2OCc2ccccc2)cc1C(=O)O`, for which, in data set [8], the Activity is recorded as 35%. In addition, the IC50 in data set [4] is 2 nM. In data set [5], the concentration peaked (Cmax) at 2940 nM. The time of peak concentration (Tmax) in data set [6] was 30 min. In data set [7], this compound gave an AUC/dose of 39 kg·min/L.
